In US8609667B2, “E-type phenyl acrylic ester compounds containing substituted anilino pyrimidine group and uses thereof” (Sinochem Corporation, priority 2009, dated 2013):
Read-outs that look alike come from different tables or passages of the source.

Columns and labels:
Type in all cases: in vivo
[1] = test system: adults of Tetranychus cinnabarinus; experiment: Acaricidal activity against adults in greenhouse (spray on broadbean shoots, mortality after 72 hrs); settings: for control against adults of Tetranychus cinnabarinus: spray, 72 hrs; for mortality at 0.625 µg/mL / mortality at 1.25 µg/mL / mortality at 2.5 µg/mL / mortality at 5 µg/mL / mortality at 10 µg/mL / mortality at 40 µg/mL: Tetranychus cinnabarinus, read-out: mortalities of adults of Tetranychus cinnabarinus (%)
Experimental: (§1) The activity determinations of compounds of the present invention against adults, nymphs and eggs of Tetranychus cinnabarinus were carried out in greenhouse by the following procedures:
The activity determination against adults in greenhouse: the compounds were weighed and dissolved in acetone to obtain mother liquid, and then the mother liquid was diluted to required concentration with placed running water containing 0.1% of Tween 80. Broadbean shoots with two true leaves were used to inoculate adults of Tetranychus cinnabarinus which were counted, spraying treatment was performed by portable sprayer (DeVilbiss Atomizer M163), 3 replicates were set for each treatment. After treatment the broadbean shoots were maintained in standard observation room. Scores were conducted and mortalities were calculated after 72 hrs.

[2] = test system: eggs of Tetranychus cinnabarinus; experiment: Activity against eggs in greenhouse (hatching inhibition rate); settings: for hatching inhibition rate against eggs of Tetranychus cinnabarinus: dose 10 mg/L; for inhibition at 0.625 µg/mL / inhibition at 2.5 µg/mL / inhibition at 10 µg/mL: Tetranychus cinnabarinus, read-out: hatching inhibition rate against eggs (%)
Experimental: as §1
The activity determination against eggs in greenhouse: Broadbean shoots in pot with one true leaf retained were taken, ten healthy female adults of Tetranychus cinnabarinus were inoculated to the leaves, the adults were removed after 24 hrs and the eggs were counted and then sprayed. The treatment of test compounds and spaying method were the same as that of the activity determination in greenhouse against adults. Once eggs of blank control were all hatched after 5 days, unhatched eggs in each treatment were investigated and the hatching inhibition rate were calculated.

[3] = test system: nymphs of Tetranychus cinnabarinus; experiment: Acaricidal activity against nymphs in greenhouse (spray, mortality after 72 hrs)
Experimental: as §1
The activity determination against nymphs in greenhouse: broadbean shoots with two true leaves in pot were taken, ten healthy female adults of Tetranychus cinnabarinus were inoculated to the leaves, the adults were removed after 24 hrs and the eggs were cultivated into nymphs after 7-10 days. The nymphs were counted and then sprayed. 3 replicates were set for each treatment. And then were maintained in standard observation room. Scores were conducted and mortalities were calculated after 72 hrs.

citrus red mite = experiment: Field trial against citrus red mite (Guilin, China); settings: 48 mg/L (24% SC)
Experimental: Field Trial Against Citrus Red Mite (Guilin, China)
The trial was carried out in a 2-year-old Shatang orange orchard in Chaotian town lingchuan county guilin city, trifoliate orange trees were selected as stocks, the intervals between two plants was 1.5×2.5 m, the average height was 1.45 m and the crown width was 1.30 m. Two trees were selected in each plot, with random arrangement and 4 replications. Compound 9 (15% SC) was set at two different doses (100 mg/L and 25 mg/L), and spirodiclofen (24% SC) was set at one dose (48 mg/L). Matabi Supergreen 16 Knapsack Sprayer 16 Liter was used to spray evenly with 2 L of spaying volume for each plant. The plants were treated once on 30 Oct. 2009, at that time, adults, nymphs and eggs of citrus red mite all existed, with adults/eggs=1/1.27. During the day the plants were treated, and the weather was good with the average temperature at 23° C. The first three days after treatment were all clear days. The number of mites was investigated before treatment and on the 1st, 3rd, 10th, 15th, 20th and 30th day after treatment respectively. Two trees of each plot were investigated according to the five directions of the tree crown (east, south, west, north and central), 5 leaves in each direction were investigated to calculate the number of living mites, with 50 leaves each plot. The decline rate of mite population and corrected efficacy were calculated according to formulas below: The decline rate of mite population(%)=[(the average number of mite on each leaf before treatment−the average number of mite on each leaf after treatment)/the average number of mite on each leaf before treatment]×100. Corrected efficacy(%)=[(the decline rate of mite population in treated area−the decline rate of mite population in untreated area)/(100−the decline rate of mite population in untreated area)]×100.

CO/C=C(/C(=O)OC)c1ccccc1COc1cc(C(F)(F)F)nc(Nc2ccccc2F)n1 [Compound 2]
control against adults of Tetranychus cinnabarinus ([1]; dose 10 mg/L): 100%
control against adults of Tetranychus cinnabarinus ([1]; dose 40 mg/L): 100%
control against adults of Tetranychus cinnabarinus ([1]; dose 100 mg/L): 100%

CO/C=C(/C(=O)OC)c1ccccc1COc1cc(C(F)(F)F)nc(Nc2cccc(C)c2)n1 [Compound 6]
control against adults of Tetranychus cinnabarinus ([1]; dose 40 mg/L): 100%
control against adults of Tetranychus cinnabarinus ([1]; dose 100 mg/L): 100%

CO/C=C(/C(=O)OC)c1ccccc1COc1cc(C(F)(F)F)nc(Nc2ccc(F)cc2F)n1 [Compound 8]
control against adults of Tetranychus cinnabarinus ([1]; dose 5 mg/L): 100%
control against adults of Tetranychus cinnabarinus ([1]; dose 10 mg/L): 100%
control against adults of Tetranychus cinnabarinus ([1]; dose 40 mg/L): 100%
control against adults of Tetranychus cinnabarinus ([1]; dose 100 mg/L): 100%
hatching inhibition rate against eggs (%) ([2]; 0.625 mg/L, Table 8): 25%
hatching inhibition rate against eggs (%) ([2]; 2.5 mg/L, Table 8): 90%
hatching inhibition rate against eggs (%) ([2]; 10 mg/L, Table 8): 100%
hatching inhibition rate against eggs of Tetranychus cinnabarinus [2]: 100%
control against nymphs of Tetranychus cinnabarinus ([3]; dose 0.63 mg/L): more than 75%
control against nymphs of Tetranychus cinnabarinus ([3]; dose 2.5 mg/L): more than 95%

CO/C=C(/C(=O)OC)c1ccccc1COc1cc(C(F)(F)F)nc(Nc2ccc(Cl)cc2F)n1 [Compound 12]
control against adults of Tetranychus cinnabarinus ([1]; dose 5 mg/L): 100%
control against adults of Tetranychus cinnabarinus ([1]; dose 10 mg/L): 100%
control against adults of Tetranychus cinnabarinus ([1]; dose 40 mg/L): 100%
control against adults of Tetranychus cinnabarinus ([1]; dose 100 mg/L): 100%

CO/C=C(/C(=O)OC)c1ccccc1COc1cc(C(F)(F)F)nc(Nc2ccc(F)c(Cl)c2)n1 [Compound 13]
control against adults of Tetranychus cinnabarinus ([1]; dose 100 mg/L): 100%

CO/C=C(/C(=O)OC)c1ccccc1COc1cc(C(F)(F)F)nc(Nc2ccc(F)c(F)c2F)n1 [Compound 15]
control against adults of Tetranychus cinnabarinus ([1]; dose 0.31 mg/L): more than 75%
control against adults of Tetranychus cinnabarinus ([1]; dose 0.625 mg/L): 95%
control against adults of Tetranychus cinnabarinus ([1]; dose 5 mg/L): 100%
control against adults of Tetranychus cinnabarinus ([1]; dose 10 mg/L): 100%
control against adults of Tetranychus cinnabarinus ([1]; dose 40 mg/L): 100%
control against adults of Tetranychus cinnabarinus ([1]; dose 100 mg/L): 100%
hatching inhibition rate against eggs of Tetranychus cinnabarinus [2]: 100%
control against nymphs of Tetranychus cinnabarinus ([3]; dose 0.63 mg/L): 100%
control against nymphs of Tetranychus cinnabarinus ([3]; dose 2.5 mg/L): 100%

CO/C=C(/C(=O)OC)c1ccccc1COc1cc(C(F)(F)F)nc(Nc2ccc(Cl)c(Cl)c2Cl)n1 [Compound 16]
control against adults of Tetranychus cinnabarinus ([1]; dose 5 mg/L): 100%
control against adults of Tetranychus cinnabarinus ([1]; dose 10 mg/L): 100%
control against adults of Tetranychus cinnabarinus ([1]; dose 40 mg/L): 100%
control against adults of Tetranychus cinnabarinus ([1]; dose 100 mg/L): 100%
hatching inhibition rate against eggs of Tetranychus cinnabarinus [2]: 100%

CO/C=C(/C(=O)OC)c1ccccc1COc1cc(C(F)(F)F)nc(Nc2ccc(Cl)c(C)c2Cl)n1 [Compound 17]
control against adults of Tetranychus cinnabarinus ([1]; dose 5 mg/L): 100%
control against adults of Tetranychus cinnabarinus ([1]; dose 10 mg/L): 100%
control against adults of Tetranychus cinnabarinus ([1]; dose 40 mg/L): 100%
control against adults of Tetranychus cinnabarinus ([1]; dose 100 mg/L): 100%

CO/C=C(/C(=O)OC)c1ccccc1COc1cc(C(F)(F)F)nc(Nc2cc(Cl)ccc2Cl)n1 [Compound 18]
control against adults of Tetranychus cinnabarinus ([1]; dose 40 mg/L): 100%
control against adults of Tetranychus cinnabarinus ([1]; dose 100 mg/L): 100%

CO/C=C(/C(=O)OC)c1ccccc1COc1nc(Nc2ccc(F)cc2F)nc(C(F)(F)F)c1C [Compound 79]
control against adults of Tetranychus cinnabarinus ([1]; dose 10 mg/L): 100%
control against adults of Tetranychus cinnabarinus ([1]; dose 40 mg/L): 100%
control against adults of Tetranychus cinnabarinus ([1]; dose 100 mg/L): 100%

CO/C=C(/C(=O)OC)c1ccccc1COc1nc(Nc2ccc(F)c(F)c2F)nc(C(F)(F)F)c1C [Compound 80]
control against adults of Tetranychus cinnabarinus ([1]; dose 40 mg/L): 100%
control against adults of Tetranychus cinnabarinus ([1]; dose 100 mg/L): 100%

CO/C=C(/C(=O)OC)c1ccccc1COc1nc(Nc2ccccc2Cl)nc(C(F)(F)F)c1C [Compound 82]
control against adults of Tetranychus cinnabarinus ([1]; dose 100 mg/L): 100%

CO/C=C(/C(=O)OC)c1ccccc1COc1nc(Nc2ccc(Cl)cc2)nc(C(F)(F)F)c1C [Compound 83]
control against adults of Tetranychus cinnabarinus ([1]; dose 100 mg/L): 100%

CO/C=C(/C(=O)OC)c1ccccc1COc1nc(Nc2ccccc2)nc(C(F)(F)F)c1C [Compound 84]
control against adults of Tetranychus cinnabarinus ([1]; dose 100 mg/L): 100%

CO/C=C(/C(=O)OC)c1ccccc1COc1nc(Nc2ccccc2)nc(C(F)(F)F)c1Cl [Compound 85]
control against adults of Tetranychus cinnabarinus ([1]; dose 100 mg/L): 100%

CO/C=C(/C(=O)OC)c1ccccc1COc1cc(C(F)(F)F)nc(Nc2ccccc2)n1 [Contrast A, reference compound]
mortality at 0.625 µg/mL ([1]; 0.625 mg/L, Table 7): 0%
mortality at 1.25 µg/mL ([1]; 1.25 mg/L, Table 7): 10%
mortality at 2.5 µg/mL ([1]; 2.5 mg/L, Table 7): 30%
mortality at 5 µg/mL ([1]; 5 mg/L, Table 7): 60%
mortality at 10 µg/mL ([1]; 10 mg/L, Table 7): 90%
mortality at 40 µg/mL ([1]; 40 mg/L, Table 7): 100%
inhibition at 0.625 µg/mL ([2]; 0.625 mg/L, Table 8): 0%
inhibition at 2.5 µg/mL ([2]; 2.5 mg/L, Table 8): 10%
inhibition at 10 µg/mL ([2]; 10 mg/L, Table 8): 100%

CO/C=C(/C(=O)OC)c1ccccc1COc1cc(C(F)(F)F)nc(N(C)C)n1 [Contrast B, reference compound]
mortality at 10 µg/mL ([1]; 10 mg/L, Table 7): 0%
mortality at 40 µg/mL ([1]; 40 mg/L, Table 7): 0%

CO/C=C(/C(=O)OC)c1ccccc1COc1cc(C(F)(F)F)nc(Nc2cccc(Cl)c2Cl)n1 [Contrast C]
inhibition at 0.625 µg/mL ([2]; 0.625 mg/L, Table 8): 0%
inhibition at 2.5 µg/mL ([2]; 2.5 mg/L, Table 8): 10%
inhibition at 10 µg/mL ([2]; 10 mg/L, Table 8): 100%

CO/C=C(/C(=O)OC)c1ccccc1COc1cc(C(F)(F)F)nc(OC(C)C)n1 [Fluacrypyrim, reference compound]
mortality at 0.625 µg/mL [1]: 0%
mortality at 1.25 µg/mL [1]: 30%
mortality at 2.5 µg/mL [1]: 65%
mortality at 5 µg/mL [1]: 95%
mortality at 10 µg/mL [1]: 100%
mortality at 40 µg/mL [1]: 100%
inhibition at 0.625 µg/mL [2]: 0%
inhibition at 2.5 µg/mL [2]: 10%
inhibition at 10 µg/mL [2]: 95%

CCC(C)(C)C(=O)OC1=C(c2ccc(Cl)cc2Cl)C(=O)OC12CCCCC2 [Spirodiclofen, reference compound]
Corrected efficacy (%) (citrus red mite; the 1st day after treatment): 59%
Corrected efficacy (%) (citrus red mite; the 3rd day after treatment): 72%
Corrected efficacy (%) (citrus red mite; the 10th day after treatment): 75%
Corrected efficacy (%) (citrus red mite; the 15th day after treatment): 76%
Corrected efficacy (%) (citrus red mite; the 20th day after treatment): 83%
Corrected efficacy (%) (citrus red mite; the 30th day after treatment): 82%
hatching inhibition rate against eggs (%) ([2]; 0.625 mg/L, Table 8): 0%
hatching inhibition rate against eggs (%) ([2]; 2.5 mg/L, Table 8): 70%
hatching inhibition rate against eggs (%) ([2]; 10 mg/L, Table 8): 100%
